Where two headings read alike, the source gives them in different places.

Series [1] has as its system cystinotic human fibroblasts. Briefly: Cystine depletion assay. As to conditions: for Emax: Homo sapiens, Fibroblast, 1 h; for Emax / Cystine Depletion (%): relative to cystine depletion by cysteamine (100%) at a similar concentration; for cystine depletion levels (in words): compared to cysteamine; for Cystine depletion: compound at 50 μM or 100 μM, Tables 1-3. In kind it is cell-based. The method, then: The ability of test compounds to deplete cystine from cystinotic human fibroblasts (Coriell) was determined by incubating compounds with cells for 60 min at 37° C., 95% (v/v) air/5% (v/v) CO2 in Minimal Essential Media Eagle. Treated cell samples were subsequently harvested, then homogenized to ensure plasma and lysosomal membrane disruption. Protein was removed by acid precipitation and cystine in the supernatant measured using LC-MS/MS and HILIC chromatography. Protein levels were determined and cystine levels reported as nM per mg/ml protein. Cystine levels after test compound treatment were expressed as a percentage of that of untreated control cells.
Compounds were assayed at a concentration of 50 μM or 100 μM according to the general methods described above.
Cystine depletion levels for the compounds are expressed in Table 4 as a percent relative to the cystine depletion achieved by cysteamine (c.f. cysteamine 100%) at a similar concentration.
Cystine depletion levels for each of the compounds in Table 5 are expressed as a percent relative to the cystine depletion achieved by cysteamine (c.f. cysteamine 100%) at a similar concentration.

Series [2] concerns St-HdhQ^111/111 cells. Briefly: Glutamate-induced neuronal excitotoxicity assay. In kind it is cell-based. As to conditions: STHdhQ111, 6 mM L-glutamate 24 hours, % of effect of 100 μM cysteamine; for viability at 10 µM: read-out: HdhQ^111/111 cell % survival (mean ± STD) Test Conc. 10 μM; for viability at 100 µM: read-out: HdhQ^111/111 cell % survival (mean ± STD) Test Conc. 100 μM. The method, then:
The ability of test compounds to inhibit glutamate-induced excitotoxicity (neuroprotection) in St-HdhQ^111/111 cells was determined by incubating compounds with cells for 60 min at 33° C., 95% (v:v) air/5% (v:v) CO2 in Dulbecco's Modified Eagle Media. Following this, excitotoxicity was induced by the addition of 6 mM L-glutamate for 24 hours. Cell viability was assessed by measuring ATP levels using a luminescent-based CellTitre Glo assay (Promega). Compound neuroprotection (% cell survival) was expressed as a % of the effect recorded with 100 μM cysteamine (denoted as 100% cell survival).

Series [3] can be described thus: Cystine reactivity assay. As to conditions: 30° C., percentage of 3 mM cysteamine. The method, then:
Cystine reactivity was assessed by incubating 3 mM test compound with 100 nM BODIPY® FL L-Cystine (Life Tech.) at 30° C., pH 7.4 in phosphate buffer. […] Compound cystine reactivity was expressed as a percentage of that of 3 mM cysteamine.
Under resting conditions, the inherent fluorescence of BODIPY® FL L-cystine was very low due to the spatial proximity of the two BODIPY molecules causing quenching. Under chemical reaction (disruption of the S—S bond), the spatial distance was increased, the quenching lost, and measured fluorescence increased. Time (minutes) vs. fluorescence (relative fluorescence units—RFU) was plotted and linear regression analysis was performed to generate a slope value corresponding to the reaction rate in RFU/min and an R2 value.

Series [4] has as its target T1, human recombinant ADO (Homo sapiens, UniProt Q96SZ5).
T1 sequence (Q96SZ5 1-270): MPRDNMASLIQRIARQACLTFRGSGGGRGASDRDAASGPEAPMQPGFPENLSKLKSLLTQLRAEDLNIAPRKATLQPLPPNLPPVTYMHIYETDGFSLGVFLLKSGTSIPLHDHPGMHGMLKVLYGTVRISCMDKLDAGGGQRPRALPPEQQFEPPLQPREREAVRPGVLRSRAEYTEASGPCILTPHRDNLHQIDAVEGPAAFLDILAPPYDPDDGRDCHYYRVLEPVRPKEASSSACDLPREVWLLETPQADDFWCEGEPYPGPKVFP
In kind it is in vitro ADME. On the procedure: The rate of ADO metabolism was determined by incubating 15 mM test compound with 60 μg/ml human recombinant ADO and 20 nM MitoXpress® O2-sensitive fluorescent probe (Luxcel) at 37° C. in assay buffer/salt in a sealed assay chamber. The initial rate of fluorescence (excitation λ380 nm and emission λ650 nm) increase was used to measure ADO-dependent oxygen depletion activity. The ability of ADO to metabolize compounds and concomitantly consume oxygen was expressed relative to that of 15 mM cysteamine.

Where [5] appears, read: Table 5, read-out: Cystine Depletion (%) Mean Value.
The mark [6] stands for this setting: Table 4, read-out: Cystine Depletion (%).

On to `N[C@H]1C[C@H](SS[C@H]2C[C@H](N)C2)C1` [Compound 151271], for which, in series [1] (setting [5]), the Emax was 27%.
As for `F[C@@H]1CNCC[C@H]1S`, in series [2], the viability at 10 µM came to 3 ± 7% and the viability at 100 µM came to 86 ± 10%.
Consider `N[C@@H]1CCCC[C@H]1S` [Compound 42692], for which the Emax in series [1] (setting [6]) amounted to 100%. In series [2], the viability at 10 µM was 82 ± 4% and the viability at 100 µM came to 71 ± 5%. Also, the “Cystine Reactivity Assay (30° C.) (%) Mean Value” in series [3] (Table 4) is more than 90%.
For the compound `CN1CCCC(SSC2CCCN(C)C2)C1` (stereo not shown) [Compound 42152], in series [1] (setting [6]), the Emax turned out to be 126%.
Consider `C[C@@]1(S)CCCNC1` [Compound 151182], for which the Emax in series [1] (setting [5]) turned out to be 59%. Moreover, in series [2], the viability at 10 µM worked out at 1 ± 5% and the viability at 100 µM is 85 ± 11%. Further, in series [3] (Table 5), the “Cystine Reactivity Assay (30° C.) (%) Mean Value” is reported as 59-90%.
On to `O=c1[nH][se]c2ccccc12` [Compound 145565], for which the Emax in series [1] (setting [5]) came out at 31%.
`CC(C)(N)CS` [Compound 3b]: in series [1], the “cystine depletion levels (in words)” value is given as “similar” and the Cystine depletion was 97%.
As for `CC(=O)SC1CCNCC1` [Compound 145692], in series [1] (setting [5]), the Emax is 75%.
In the case of `CC1(C)CNCCC1S` (stereo not shown) [Compound 42609], the Emax in series [1] (setting [6]) amounted to 17%.
For `CC1(S)CC(N)C1` (stereo not shown) [Compound 152071], the Emax in series [1] (setting [5]) stood at 70%.
For the compound `C[N+]1(C)CCC(S)CC1`, in series [2], the viability at 10 µM turned out to be 1 ± 6% and the viability at 100 µM came to 16 ± 7%.
Take `NC1CCC(S)C1` (stereo not shown) [Compound 42691]: the “Cystine Reactivity Assay (30° C.) (%) Mean Value” in series [3] (Table 4) is on record as 50-90%.
Regarding `CSC1(C)CCNCC1` [Compound 145691], the Emax in series [1] (setting [5]) is 0%.
In the case of `NC1(CS)CC1` [Compound 41448], the Emax in series [1] (setting [6]) was 55%. In addition, in series [4] (human, 15 mM), the “ADO Metabolism Assay (%) Mean Value” is on record as 25-75%.
In the case of `C[C@@H](N)CS` (single isomer, unassigned) [Compound 42099], in series [1] (Table 4), the “Cystine Depletion (%)” value stood at 79%.
Take `CN1CC(SSC2CN(C)C2)C1` [Compound 42151]: the Emax in series [1] (setting [6]) was found to be 133%.
Same read-out and setting: with `CN1CC[C@H](SS[C@H]2CCN(C)C2)C1` [Compound 42343] the figure was 84%.
On the same count and under the same terms, under `CN1CC[C@@H](SS[C@H]2CCN(C)C2)C1` [Compound 42342] stands 91%.
For the compound `SC1CNC1` [Compound 2a], in series [1], the “cystine depletion levels (in words)” value is recorded as “slightly decreased” and the Cystine depletion is given as 82%. Besides, in series [4], the “metabolism by ADO compared to cysteamine (in words)” value is listed as “significantly reduced metabolism by ADO compared to cysteamine”.
With `CC(C)(N)CS` [Compound 42097], the Emax in series [1] (setting [6]) is 97%.
`FC1(F)CN[C@@H](CS)C1` [Compound 149607]: the Emax in series [1] (setting [5]) came out at 17%. Also, in series [2], the viability at 10 µM stood at 32 ± 9% and the viability at 100 µM is 98 ± 12%. Further, the “Cystine Reactivity Assay (30° C.) (%) Mean Value” in series [3] (Table 5) is recorded as more than 90%.
For the compound `FC1(F)CCNC[C@@H]1S` [Compound 42694], the Emax in series [1] (setting [6]) was determined as 20%. Moreover, in series [3] (Table 4), the “Cystine Reactivity Assay (30° C.) (%) Mean Value” is on record as less than 50%.
Turning to `Sc1ccncc1` [Compound 42338], the “Cystine Reactivity Assay (30° C.) (%) Mean Value” in series [3] (Table 4) is reported as less than 50%.
Turning to `N[C@H]1C[C@H](S)C1` [Compound 142460], in series [1] (setting [5]), the Emax turned out to be 78%. The “Cystine Reactivity Assay (30° C.) (%) Mean Value” in series [3] (Table 5) is reported as 50-90%.
As for `N[C@H]1CCCC[C@@H]1S` [Compound 42693], the Emax in series [1] (setting [6]) stood at 110%. For the same compound, in series [2], the viability at 10 µM is 80 ± 10% and the viability at 100 µM worked out at 77 ± 9%. In addition, the “Cystine Reactivity Assay (30° C.) (%) Mean Value” in series [3] (Table 4) was more than 90%.
Take `SCC1CCN1` (stereo not shown) [Compound 42212]: the “Cystine Reactivity Assay (30° C.) (%) Mean Value” in series [3] (Table 4) was less than 50%.
Turning to `CNCCS` [Compound 1a], in series [1], the “cystine depletion levels (in words)” value was “slightly decreased cystine depletion levels” and the Cystine depletion is 85%. Also, the “Cystine depletion ( ) = disulfide efficacy” value in series [1] (disulfide of the compound, 50 μM or 100 μM) is recorded as “(94%)”. Moreover, the “metabolism by ADO compared to cysteamine (in words)” value in series [4] is reported as “significantly reduced metabolism by ADO compared to cysteamine”.
As for `N[C@@H]1CCCC[C@@H]1S` [Compound 42610], the Emax in series [1] (setting [6]) was 91%. In series [2], the viability at 10 µM was determined as 19 ± 6% and the viability at 100 µM was found to be 77 ± 8%. Further, the “Cystine Reactivity Assay (30° C.) (%) Mean Value” in series [3] (Table 4) is listed as more than 90%.
As to `CCN1CCC(S)CC1` [Compound 42391], the Emax in series [1] (setting [6]) came to 60%. Besides, the “Cystine Reactivity Assay (30° C.) (%) Mean Value” in series [3] (Table 4) is reported as more than 90%.
Take `CC1(SSC2(C)CCNCC2)CCNCC1` [Compound 151272]: the Emax in series [1] (setting [5]) was 11%.
As to `Nc1nc2[nH]cnc2c(=S)[nH]1` [Compound 1141], the Emax in series [1] (setting [5]) came to 0%. For the same compound, in series [3] (Table 5), the “Cystine Reactivity Assay (30° C.) (%) Mean Value” was less than 50%.
`SC[C@@H]1CCCCN1` [Compound 145592]: in series [1] (setting [5]), the Emax was determined as 156%. In addition, in series [2], the viability at 10 µM turned out to be 17 ± 10% and the viability at 100 µM amounted to 88 ± 8%. Further, the “Cystine Reactivity Assay (30° C.) (%) Mean Value” in series [3] (Table 5) was more than 90%.
As for `C[C@H]1CCNC[C@@H]1S` [Compound 42612], in series [1] (setting [6]), the Emax was 98%.
The same measure, in the same setting: under `C[C@H]1C[C@@H](S)CCN1` [Compound 42618] stands 49%.
As to `CC1(S)CCNC1` (stereo not shown) [Compound 150731], in series [1] (setting [5]), the Emax was found to be 58%. Moreover, the “Cystine Reactivity Assay (30° C.) (%) Mean Value” in series [3] (Table 5) is more than 90%.
Turning to `Oc1ccc2ccccc2c1SSc1c(O)ccc2ccccc12` [Compound 2415], the Emax in series [1] (setting [5]) came out at 14%.
On to `CNCCS` [Compound 18781], for which, in series [1] (Table 4), the “Cystine Depletion (%)” value is on record as 92%.
As to `CN1CC[C@H](S)C1`, in series [2], the viability at 10 µM was 11 ± 11% and the viability at 100 µM was 95 ± 6%.
`N[C@H]1CC[C@H](S)CC1` [Compound 42492]: in series [3] (Table 4), the “Cystine Reactivity Assay (30° C.) (%) Mean Value” is recorded as less than 50%.
`CC(C)N1CCC(S)CC1` [Compound 42458]: in series [1] (setting [6]), the Emax amounted to 91%. For the same compound, the “Cystine Reactivity Assay (30° C.) (%) Mean Value” in series [3] (Table 4) is reported as more than 90%.
`C[C@]1(S)CCCNC1` [Compound 151181]: the Emax in series [1] (setting [5]) came to 69%. In series [2], the viability at 10 µM was found to be 3 ± 8% and the viability at 100 µM was determined as 90 ± 9%. For the same compound, the “Cystine Reactivity Assay (30° C.) (%) Mean Value” in series [3] (Table 5) is recorded as 50-90%.
On to `C[C@H](N)CS` (single isomer, unassigned) [Compound 42-98], for which the “Cystine Depletion (%)” value in series [1] (Table 4) was found to be 70%.
Regarding `CN1C2CCC1CC(SSC1CC3CCC(C1)N3C)C2` (stereo not shown) [Compound 42344], the Emax in series [1] (setting [6]) turned out to be 38%.
As for `N[C@H]1C[C@@H](SS[C@H]2C[C@@H](N)C2)C1` [Compound 151270], the Emax in series [1] (setting [5]) turned out to be 3%.
As for `CN1CC[C@@H](S)C1`, in series [2], the viability at 10 µM stood at 13 ± 13% and the viability at 100 µM was 93 ± 9%.
With `FC1(F)CN[C@H](CS)C1` [Compound 149611], in series [1] (setting [5]), the Emax was found to be 27%. Moreover, in series [2], the viability at 10 µM came to 35 ± 13% and the viability at 100 µM came to 102 ± 13%. Moreover, the “Cystine Reactivity Assay (30° C.) (%) Mean Value” in series [3] (Table 5) was more than 90%.
Taken in the same sequence, the figures for `SCC1CNC1` [Compound 145585] were 11%, 13 ± 10%, 100 ± 9% and more than 90%.
